# “Also recorded” adds a separate entry of the source. Side chains are listed from the residue outwards. Ends that are not written are not given here.
# Experiments:
# [1] = test system: splenocytes; assay: IFN-gamma producing splenocytes after immunization with L. monocytogenes CTL epitope peptides; type: in vivo, BALB/c mice; details: 9 nmoles subcutaneously, in vitro stimulation with CTL epitope, day 28
# Description: FIG. 11 is a graphical representation showing induction of interferon-gamma producing cells by lipopeptide. Peptide comprising a T-helper epitope and a CTL epitope of Listeria monocytogenes linked via the epsilon amino group of an internal lysine residue positioned between said epitopes to Pam2Cys (i.e. the peptide [P25]-Lys(Pam2Cys-Ser-Ser)-[LLO91-99] listed in FIG. 2 and based upon SEQ ID NO: 175), or lipopeptide(s) based on this structure in which Pam2Cys was linked through the epsilon amino group of said lysine, were used to inoculate mice. […] Splenocytes were obtained from the immunized animals and stimulated in vitro with either the isolated CTL epitope having the sequence set forth in SEQ ID NO: 172 (open bars) or no antigen (filled bars), and the number of (IFN-gamma) producing cells present was measured 28 days later. […]
# 5 BALB/c mice were inoculated with 9 nmoles of non-lipidated peptide ([P25]-Lys-[LLO91-99]), or lipidated peptide ([P25]-Lys(Pam2Cys-Ser-Ser)-[LLO91-99]) in which lipid was attached between the two epitopes at the approximate centre of the molecule, or with 1000 bacteria. […] The number of interferon-γ producing cells present in spleen was measured on day 28 following in vitro stimulation with the CTL epitope or no antigen. […]
# [2] = test system: Listeria monocytogenes; assay: Protection against L. monocytogenes challenge (colony forming units in liver); type: in vivo; details: 9 nmol subcutaneously, i.v. challenge 28 days after priming, CFU in liver; relative to non-lipidated peptide or PBS
# Description: FIG. 12 is a graphical representation showing enhanced protection against L. monocytogenes infection for mice immunized with the lipopeptide designated [P25]-Lys(Pam2Cys-Ser-Ser)-[LLO91-99] in FIG. 2 (based upon SEQ ID NO: 175). Five 5 BALB/c mice were inoculated intravenously with 1,000 bacteria (column 1), or immunized subcutaneously with PBS (column 2) or 9 nmol [P25]-Lys(Pam2Cys-Ser-Ser)-[LLO91-99] peptide (column 3) or 9 nmol non-lipidated [P25]-Lys-[LLO091-99] peptide (SEQ ID NO: 175; column 4), as indicated on the x-axis. Mice were challenged with whole bacteria and the number of colony forming units present in liver was measured 28 days post-challenge (ordinate).
# Listeria monocytogenes EGD was cultured overnight at 37° C. on Horse Blood Agar (HBA) plates. The bacteria were washed off the plates using sterile PBS and the concentration adjusted to 5×10^3 Listeria cells/ml. Balb/c mice were infected intravenously with 1×10^3 Listeria cells. The dose was checked retrospectively by plating serial 10-fold dilutions on HBA plates.
# Mice immunized s.c. with 9 nmol peptide immunogen or PBS, or i.v. with 1000 bacteria, were challenged by i.v. injection with bacteria 28 days after priming and the number of colony forming units of bacteria present in the liver determined 28 days after challenge.
substance,measurement,setting,value
[P25]-Lys(Pam2Cys-Ser-Ser)-[LLO91-99]: peptide [P25]-Lys-[LLO91-99] and a lipid of the Formula (IV) conjugated to the epsilon-amino group of the internal lysine (KLIPNASLIENCTKAELK([Ser-Ser-Pam2Cys])GYKDGNEYI),IFN-γ producing cells per million splenocytes relative to non-lipidated peptide or PBS control,[1],about 15 fold
same,protection against challenge with whole bacteria,[2],successfully provides protection; also recorded: significantly enhanced protection
